Source: ChEMBL document CHEMBL1135751, “A trypanocidal phenazine derived from beta-lapachone” (2002)

Test system: Trypanosoma cruzi
Assay: Trypanocidal effect on bloodstream trypomastigotes of Trypanosoma cruzi; ED50/24h
Type: functional

| Structure (SMILES) | ED50 [µM] |
| --- | --- |
| CC1(C)CCc2c(c3ccccc3c3nc4cc(Nc5ccccc5)/c(=N/c5ccccc5)cc-4n(-c4ccccc4)c23)O1 | 61.3 |
| CN(C)c1ccc(C(=C2C=CC(=[N+](C)C)C=C2)c2ccc(N(C)C)cc2)cc1 | 536 |
